Data published in ChEMBL document CHEMBL1156103, “Ionic liquid mediated and promoted eco-friendly preparation of thiazolidinone and pyrimidine nucleoside-thiazolidinone hybrids and their antiparasitic activities” (Bioorg Med Chem Lett, 2009).

Assays:
[1] = tested on: Trypanosoma brucei brucei; test: Antitrypanosomal activity against Trypanosoma brucei brucei GVR 35 trypomastigotes after 72 hrs by MTT assay; type: functional, organism-based; details: GVR 35, 72 h
Leishmania donovani = test: Antileishmanial activity against Leishmania donovani LV9 promastigotes after 72 hrs by MTT assay; type: functional, organism-based; details: LV9, 72 h

Row | IC50 [1] [µM] | SMILES | IC50 (Leishmania donovani) [µM]
1 | > 100 | CC(=O)OC[C@H]1O[C@@H](n2cc(C3SCC(=O)N3c3cccc([N+](=O)[O-])c3)c(=O)[nH]c2=O)C[C@@H]1OC(C)=O (some centres undefined) | > 100
2 | > 100 | CC(=O)OC[C@H]1O[C@@H](n2cc(C3SCC(=O)N3c3cccc(Br)n3)c(=O)[nH]c2=O)C[C@@H]1OC(C)=O (some centres undefined) | 50
3 | > 100 | CC(=O)OC[C@H]1O[C@@H](n2cc(C3SCC(=O)N3c3ccc(F)cc3)c(=O)[nH]c2=O)C[C@@H]1OC(C)=O (some centres undefined) | 50
4 | > 100 | CC(=O)OC[C@H]1O[C@@H](n2cc(C3SCC(=O)N3c3ccccn3)c(=O)[nH]c2=O)C[C@@H]1OC(C)=O (some centres undefined) | > 100
5 | > 100 | CC(=O)OC[C@H]1O[C@@H](n2cc(C3SCC(=O)N3c3ccc(Cl)cc3)c(=O)[nH]c2=O)C[C@@H]1OC(C)=O (some centres undefined) | 25
6 | > 100 | CC(=O)OC[C@H]1O[C@@H](n2cc(C3SCC(=O)N3c3ccc(C)cc3)c(=O)[nH]c2=O)C[C@@H]1OC(C)=O (some centres undefined) | 100
7 | > 100 | CC(=O)OC[C@H]1O[C@@H](n2cc(C3SCC(=O)N3c3ccccc3)c(=O)[nH]c2=O)C[C@@H]1OC(C)=O (some centres undefined) | 50
